The text below walks through data of patent US12233143B2, “Topical compositions containing rose oil and cannabidiol and methods of making and using the same” (priority 2019, dated 2025).

Where “and” joins values, the source holds several entries; their conditions need not be identical. Equal entries are not always repeated. Where only a bound is given, the exact number is not on record here.

For assay [1], the system named is human keratinocyte stem cells (KSC). The assay can be described thus: Migration of keratinocyte stem cells, scratch wound gap recovery. The format is cell-based. The note with it: 24 hours of incubation. The method, then: The effect of S-863d and S-863g on wound healing in keratinocytes was evaluated. The migration of human keratinocyte stem cells (KSC) was evaluated by measuring wound recovery using imaging on a system whereby a “wound gap” was created by scratching.
Materials: Human keratinocyte cells (KSC) were used at the third passage and cultured at 37° C. in the presence of 5% CO2. The NHEK cells were grown in keratinocyte serum free media supplemented with gentamycin (25 μg/mL), pituitary extract (PE) (25 μg/mL), and epidermal growth factor (EGF) (0.25 ng/ml). S-863d contained 3% phospholipids, 54% glycerin, 10% caprylic/capric triglyceride, 1% cannabidiol, 2% AlpineRoseActive™, 1% glycoin, 0.1% tocopherol, and water (ad 100%). The particle size (zAve) of S-863d was 90±50 nm, and the pH of S-863d was between 4.5 and 7.5. The total germ count of S-863d was <100 CFU/g. S-863d was stored at 4° C. in a dark space in a closed container. S-863g (negative control) contained 1% CBD in DMSO. S-863d was evaluated at 0.004%, 0.02%, and 0.1%. S-863g was evaluated at 0.00044%, 0.0013%, and 0.004%.
Methods: The KSCs were seeded in 24-well plates (previously coated with a collagen I solution) and cultured in culture medium for 24 hours. The medium was then replaced by assay medium and an artificial “wound gap” was generated by scratching the cell monolayers. The KSCs were labeled with calcien-AM. After 30 minutes of incubation (TO), the medium was replaced by assay medium containing or not (control condition) the test compounds or the reference compound (e.g. epidermal growth factor (EGF) at 10 ng/mL) and the cells were further incubated for 24 hours. The labeling with calcein-AM was renewed before the final timepoint. All experimental conditions were performed in triplicate. Cell migration into the migration zone was observed after 0 (TO) and 24 hours of incubation using a high-resolution imaging system INCell Analyzer′ 2200 (GE Healthcare) automated microscope and the artificial wound area was analyzed using ImageJ software. One picture was taken per well (objective lens×4). The artificial wound area was measured after 24 hours of incubation and compared to the area measured at TO in order to visualize and quantify the wound recovery. The effect of compounds on cell migration was compared to the untreated control.
The migration area (percentage of wound recovery) was calculated using the following formula: […]

For assay [2], the system named is PMA-induced IL-8 release by NCTC-2544 keratinocytes. In words: PMA-induced IL-8 release, ELISA. The class given is cell-based, human. The note with it: Dexamethasone 10^−7 M, PMA 0.1 μg/ml. The procedure:
(§1) The effect of S-863d and S-863g on inflammation in keratinocytes was evaluated by measuring phorbol myristate acetate (PMA)-induced interleukin-8 (IL-8) and prostaglandin E2 (PGE2) release from a NCTC-2544 keratinocyte cell line by enzyme-linked immunosorbent assay (ELISA).
(§2) Materials: A NCTC-2544 human keratinocyte cell line (NCTC-2544 cells) was cultured at 37° C. in the presence of 5% CO2. The NCTC-2544 cells were grown in Dulbecco's Modified Eagle Medium (DMEM) supplemented with L-glutamine (2 mM), penicillin (50 U/mL), Streptomycin (50 μg/mL), and fetal calf serum (FCS) (10%). S-863d contained 3% phospholipids, 54% glycerin, 10% caprylic/capric triglyceride, 1% cannabidiol, 2% AlpineRoseActive™, 1% glycoin, 0.1% tocopherol, and water (ad 100%). The particle size (zAve) of S-863d was 90±50 nm, and the pH of S-863d was between 4.5 and 7.5. The total germ count of S-863d was <100 CFU/g. S-863d was stored at 4° C. in a dark space in a closed container. S-863g (negative control) contained 1% CBD in DMSO. S-863 d was evaluated at 0.004%, 0.02%, and 0.1%. S-863g was evaluated at 0.00044%, 0.0013%, and 0.004%.
(§3) Methods: The keratinocytes were seeded in 96-well plates and cultured for 24 hours in culture medium. The medium was then replaced by culture medium containing or not (control) the test compounds or the reference compound (dexamethasone at 10′ M for IL-8 assay and indomethacin at 10′ M for PGE2 assay) and the cells were pre-incubated for 24 hours. After pre-incubation, the medium was replaced by culture medium containing or not (control) the test compounds or the reference compounds and the inflammatory inducer phorbol myristate acetate (PMA) at 0.1 μg/mL was added. The cells were further incubated for 24 hours. A control without inducer was performed in parallel (non-stimulated control condition). All experimental conditions were performed in triplicate. IL-8 and PGE2 released in the culture supernatants were measured by ELISA.
(§4) Inhibition of IL-8 and PMA-induced PGE2 release was measured using the following formula: […]
(ELISA stands for enzyme-linked immunosorbent assay.)

For assay [3], the system named is PMA-induced PGE2 release by NCTC-2544 keratinocytes. In words: PMA-induced PGE2 release, ELISA. The format is cell-based, human. The procedure: as §1, §2, §3, §4

A word on the inhibition: it is the change of the read-out against control, counted positive when it falls.

Turning to epidermal growth factor [EGF], in assay [1] (all tested concentrations), the “Effect on KSC migration / wound recovery (in words)” value was “marked stimulation”. Moreover, in assay [1] (EGF 10 ng/ml), the “Wound Recovery Mean” value was determined as 73% and the “Wound recovery % Control” value was 183 % Control. In assay [1] (EGF 10 ng/ml, single image), the “24 Hours Wound area” value is 0.46 mm^2 and 0.50 mm^2 and 0.76 mm^2; the “Wound Recovery” value is 80% and 75% and 64%.
As for `C[C@@H]1C[C@H]2[C@@H]3CCC4=CC(=O)C=C[C@]4(C)[C@@]3(F)[C@@H](O)C[C@]2(C)[C@@]1(O)C(=O)CO` [Dexamethasone, dexamethasone], in assay [2], the “IL-8 % Stimulated control” value came to 18% and the “IL-8 Mean” value was 22112 pg/mL. The “IL-8 (pg/ml) dilution factor adjusted” value in assay [2] (single replicate) is 18117 pg/mL and 23002 pg/mL and 25217 pg/mL. Moreover, in assay [2] (Homo sapiens, NCTC-2544, read-out: IL-8 % Relative inhibition), the inhibition at 0.1 µM was 82%.
As for `COc1ccc2c(c1)c(CC(=O)O)c(C)n2C(=O)c1ccc(Cl)cc1` [Indomethacin, indomethacin], in assay [3] (Homo sapiens, NCTC-2544, read-out: PGE2 % Relative inhibition), the inhibition at 1 µM is over 100%. In assay [3] (Indomethacin 10^−6 M, PMA 0.1 μg/ml, non-diluted samples), the “PGE2 Mean” value was under 39 pg/mL. Further, the “PGE2 (pg/ml) dilution factor adjusted” value in assay [3] (Indomethacin 10^−6 M, PMA 0.1 μg/ml, non-diluted samples, single replicate) was under 39 pg/mL. For the same compound, the “PGE2 % Stimulated control” value in assay [3] (Indomethacin 10^−6 M, PMA 0.1 μg/ml, extrapolated from values below detection limit) is given as under 0%. Moreover, the “Effect on PMA-induced PGE2 release (in words)” value in assay [3] (NCTC-2544 cells, PMA 0.1 μg/mL) was “completely inhibited”.
